Source: patent US8871751B2, “Compositions and methods relating to nuclear hormone and steroid hormone receptors including inhibitors of estrogen receptor alpha-mediated gene expression and inhibition of breast cancer” (The Board of Trustees of the University of Illinois, priority 2008, dated 2014)
Values joined by “and” are separate entries in the source; they are usually repeats but may differ in a detail not shown here. Equal entries are not always repeated. Where two headings read alike, the source gives them in different places.

Assays:
PR = target: T1, PR (Homo sapiens, UniProt P06401); assay: PR transactivation, MMTV-luciferase reporter in T47D cells; format: cell-based
T1 construct: endogenous in cells; host or cells: T47D (stably transfected with GR and MMTV-luciferase)
T1 sequence (P06401 1-933): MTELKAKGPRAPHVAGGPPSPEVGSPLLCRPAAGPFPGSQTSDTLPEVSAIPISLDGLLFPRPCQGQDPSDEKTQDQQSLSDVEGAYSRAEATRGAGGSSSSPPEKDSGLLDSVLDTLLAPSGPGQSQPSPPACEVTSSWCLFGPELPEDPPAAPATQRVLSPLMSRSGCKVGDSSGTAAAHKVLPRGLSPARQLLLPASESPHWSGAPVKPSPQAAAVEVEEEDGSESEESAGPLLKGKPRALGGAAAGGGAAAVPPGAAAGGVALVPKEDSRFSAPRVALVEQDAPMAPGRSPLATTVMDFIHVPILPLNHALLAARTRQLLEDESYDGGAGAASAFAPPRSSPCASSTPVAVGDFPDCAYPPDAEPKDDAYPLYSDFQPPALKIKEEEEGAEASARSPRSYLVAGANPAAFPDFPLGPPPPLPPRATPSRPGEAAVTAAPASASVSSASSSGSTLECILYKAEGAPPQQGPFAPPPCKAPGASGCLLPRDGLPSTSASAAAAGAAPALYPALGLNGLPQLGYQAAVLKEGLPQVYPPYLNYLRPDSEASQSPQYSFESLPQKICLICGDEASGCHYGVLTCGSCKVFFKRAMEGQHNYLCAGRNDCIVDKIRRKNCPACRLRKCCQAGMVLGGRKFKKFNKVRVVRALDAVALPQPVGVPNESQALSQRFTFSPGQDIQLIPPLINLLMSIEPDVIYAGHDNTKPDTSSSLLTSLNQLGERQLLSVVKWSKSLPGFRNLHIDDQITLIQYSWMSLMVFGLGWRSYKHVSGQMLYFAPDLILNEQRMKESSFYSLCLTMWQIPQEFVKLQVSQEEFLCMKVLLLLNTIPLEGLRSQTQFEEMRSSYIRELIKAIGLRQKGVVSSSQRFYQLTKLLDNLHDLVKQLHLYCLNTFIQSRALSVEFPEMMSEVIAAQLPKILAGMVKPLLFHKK
Method: The T47D-KBluc cells stably express an (ERE)3-luciferase reporter gene (38). Cells were maintained in phenol red-free RPMI 1640 with 2 mM L-glutamine, 1.5 g/l sodium bicarbonate, 4.5 g/l glucose, 10 mM Hepes, pH 7.5, 1 mM sodium pyruvate, 10% FBS (Atlanta Biological, Atlanta, Ga.) and antibiotics. Four days before E2 induction, the cells were switched to the above medium, with 10% 2× charcoal-dextran-treated calf serum instead of FBS. 200,000 cells/well were transferred to each well of a 24-well plate. After 24 h the indicated concentrations of the test compounds were added in DMSO and E2 was added to 20 pM. After 24 h cells were washed once in PBS, and 150 μl 1× Passive Lysis Buffer (Promega, Madison Wis.) was used to lyse the cells. Luciferase activity was determined using firefly luciferase reagents from Promega (Madison, Wis.). T47D cells stably transfected to express GR and a mouse mammary tumor virus luciferase reporter that responds to liganded GR and PR were maintained and assayed in medium containing 5 nM progesterone for PR assays, or 2.5 nM dexamethsaone for GR assays, essentially as described (39).

AR = target: T2, AR (Homo sapiens, UniProt P10275); assay: AR-mediated gene expression, PSA-luciferase reporter in stable HeLa-AR cells; format: cell-based; conditions: for IC50: 24 h
T2 construct: expressed in transfected cells; host or cells: HeLa (HeLa-AR / HeLaAR)
T2 sequence (P10275 1-920): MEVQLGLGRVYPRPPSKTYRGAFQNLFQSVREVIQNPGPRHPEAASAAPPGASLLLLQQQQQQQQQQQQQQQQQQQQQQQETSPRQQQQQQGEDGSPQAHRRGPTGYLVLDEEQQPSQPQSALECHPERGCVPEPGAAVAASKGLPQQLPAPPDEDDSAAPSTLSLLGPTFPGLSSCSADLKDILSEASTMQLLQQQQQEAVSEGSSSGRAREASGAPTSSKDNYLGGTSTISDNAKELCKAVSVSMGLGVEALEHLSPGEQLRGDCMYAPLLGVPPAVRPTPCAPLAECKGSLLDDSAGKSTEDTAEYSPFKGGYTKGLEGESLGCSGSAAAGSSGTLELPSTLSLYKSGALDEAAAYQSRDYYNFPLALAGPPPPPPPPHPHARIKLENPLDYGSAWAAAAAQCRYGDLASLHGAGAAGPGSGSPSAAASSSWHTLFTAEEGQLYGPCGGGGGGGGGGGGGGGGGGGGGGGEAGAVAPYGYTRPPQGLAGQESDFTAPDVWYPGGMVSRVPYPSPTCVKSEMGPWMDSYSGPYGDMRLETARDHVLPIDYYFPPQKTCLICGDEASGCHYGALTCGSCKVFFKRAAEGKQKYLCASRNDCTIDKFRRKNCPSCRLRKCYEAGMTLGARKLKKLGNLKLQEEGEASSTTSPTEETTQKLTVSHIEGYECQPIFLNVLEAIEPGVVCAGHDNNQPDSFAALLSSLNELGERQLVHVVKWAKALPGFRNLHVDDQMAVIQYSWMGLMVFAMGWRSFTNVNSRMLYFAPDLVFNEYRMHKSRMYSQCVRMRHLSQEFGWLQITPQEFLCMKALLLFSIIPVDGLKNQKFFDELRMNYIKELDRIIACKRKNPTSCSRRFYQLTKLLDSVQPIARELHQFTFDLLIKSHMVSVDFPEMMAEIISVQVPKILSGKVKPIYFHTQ
Method: FIG. 9. Effect of some Theophylline-related compounds on AR-mediated gene expression in stable HeLa-AR cells. Assays were performed as described for ER in the legend to FIG. 4 and PR/GR in FIG. 5. The cells were incubated with 80 pM DHT and the indicated concentration of each small molecule. Luciferase activity was measured after 24 hours. The data represent the mean±SEM for 3 separate experiments at each concentration.
Reporter Gene Assays. TPSF was identified by reporter gene assays comparing the ability of ˜200 compounds structurally related to TPBM (see reference 19) to inhibit transcription of a stably transfected (ERE)3-luciferase reporter gene in T47D-KBluc breast cancer cells (20). AR was assayed in stably transfected HeLa cells and GR was assayed in stably transfected T47D cells maintained as described above. Four days before each experiment the cells were switched to medium containing CD-treated serum as described above. The HeLaAR cells were plated at 100,000 cells/well and the T47D/A1-2 and T47D-KBluc cells were plated at 200,000 cells/well in 1 ml of their respective media in 24-well plates. After 24 hours the indicated concentrations of E2, dihydrotestosterone (DHT) or dexamethasone (Dex) and DMSO vehicle, with or without TPSF, were added to each well. After 24 hours, the cells were washed once in phosphate buffered saline and lysed using 100 μl of 1× Passive Lysis Buffer (Promega, Madison Wis.). Luciferase activity was determined using BrightGlo firefly luciferase reagent from Promega (Madison, Wis.).

[1] = HeLa-AR cells, 80 pM DHT, read-out: AR-IC50

Row | SMILES | PR at 30 μM (PR) | AR at 10 μM (AR) | IC50 (AR; [1]) | effect on PR transactivation (PR; 5 nM progesterone, up to 30 μM) | IC50 (AR; stably transfected HeLa cells, 1 μM DHT, read-out: IC50 for inhibition of AR gene expression (PSA-Luc))
1 | CCCSc1nc2c([nH]1)c(=O)n(C)c(=S)n2C [Compound 95869, 1,3-Dimethyl-8-propylsulfanyl-2-thioxo-1,2,3,7-tetrahydro-purin-6-one] | 0 | 90 | 1 µM |  | 
2 | Cn1c(=O)c2[nH]c(SC3CCCCC3)nc2n(C)c1=S [Compound 95899, 8-Cyclohexylsulfanyl-1,3-dimethyl-2-thioxo-1,2,3,7-tetrahydro-purin-6-one] | 42 | 88 | 2.5 µM |  | 
3 | Cn1c(=O)c2[nH]c(C3CC4CCC3C4)nc2n(C)c1=O (centres unmarked) [Compound 101807, 8-Bicyclo[2.2.1]hept-2-yl-1,3-dimethyl-3,7-dihydro-purine-2,6-dione] | 71 | 50 | 5 µM |  | 

Other lines, results leading:

Row | PR at 30 μM (PR) | AR at 10 μM (AR) | IC50 (AR; [1]) | effect on PR transactivation (PR; 5 nM progesterone, up to 30 μM) | IC50 (AR; stably transfected HeLa cells, 1 μM DHT, read-out: IC50 for inhibition of AR gene expression (PSA-Luc)) | SMILES
4 |  |  |  | did not significantly inhibit |  | Cn1c(=O)c2nc(CSCc3ccccc3)[nH]c2n(C)c1=O [Compound 95910, 8-Benzylsulfanylmethyl-1,3-dimethyl-3,7-dihydro-purine-2,6-dione]
5 |  |  |  |  | 33 µM and 34 µM | Cn1c(=S)c2[nH]c(SCCCC(=O)c3ccc(F)cc3)nc2n(C)c1=O [TPSF, Butyrophenone, p-fluoro-4-(1,2,3,6,-tetrahydro-1,3-dimethyl-2-oxo-6-thionopurin-8-ylthio)]
